ChEMBL document CHEMBL5338790, “Discovery of Subcellular-Targeted Aza-BODIPY Photosensitizers for Efficient Photodynamic Antitumor Therapy” (J Med Chem, 2023)
Active and inactive are the calls of the source. The rule behind the calls is not given here.

What was measured:
[1] = tested on: HeLa; test: Photodynamic cytotoxicity against human HeLa cells assessed as inhibition of cell viability incubated for 3 hrs followed by photo-irradiation at 54 J/cm2 measured after 24 hrs by CCK8 assay; format: functional, cell-based; details: light or radiation study
[2] = tested on: HeLa; test: Induction of ROS production in human HeLa cells upto 200 nM preincubated for 2 hrs followed by H2DCFDA probe exposure for 30 mins and subsequent removal of probe with photo-irradiation at 16 J/cm2 by confocal scanning microscopic analysis; format: functional, cell-based; details: time 2.5 hrs
[3] = tested on: HUVEC; test: Photodynamic cytotoxicity against HUVEC cells assessed as inhibition of cell viability incubated for 3 hrs followed by photo-irradiation at 54 J/cm2 measured after 24 hrs by CCK8 assay; format: functional, cell-based; details: Homo sapiens, light or radiation study
[4] = tested on: HeLa; test: Induction of ROS production in human HeLa cells preincubated for 2 hrs followed by H2DCFDA probe exposure for 30 mins and subsequent removal of probe with photo-irradiation at 16 J/cm2 by confocal scanning microscopic analysis; format: functional, cell-based; details: dose <= 200.0 nM, time 2.5 hrs
[5] = Cytotoxicity against human HeLa cells assessed as inhibition of cell viability under dark condition incubated for 27 hrs by CCK8 assay; format: toxicity, cell-based
[6] = Cytotoxicity against HUVEC cells assessed as inhibition of cell viability under dark condition incubated for 27 hrs by CCK8 assay; format: toxicity, cell-based; details: human
[7] = Cytotoxicity against mouse B16-F10 cells assessed as inhibition of cell viability under dark condition incubated for 27 hrs by CCK8 assay; format: toxicity, cell-based
[8] = Drug localization in mitochondria of human HeLa cells at 5 uM incubated for 30 mins by MitoTracker Green FM dye based confocal scanning microscopic analysis; format: ADME; details: 0.5 h
[9] = Drug localization in lysosome of human HeLa cells at 5 uM incubated for 30 mins by Lyso-tracker Green DND-26 dye based confocal scanning microscopic analysis; format: ADME, subcellular; details: 0.5 h
[10] = Drug uptake in human HeLa cells at 5 uM incubated for 3 hrs by confocal scanning microscopy; format: ADME, cell-based
[11] = Cytotoxicity against human HepG2 cells assessed as inhibition of cell viability under dark condition incubated for 27 hrs by CCK8 assay; format: toxicity, cell-based
[12] = tested on: HeLa; test: Induction of ROS production in human HeLa cells upto 200 nM preincubated for 2 hrs followed by H2DCFDA probe exposure for 30 mins and subsequent removal of probe by confocal scanning microscopic analysis; format: functional, cell-based; details: time 2.5 hrs
[13] = Drug uptake in human HeLa cells at 5 uM by confocal scanning microscopy; format: ADME, cell-based; details: 3 h, TDE = time-dependent effect
[14] = tested on: B16-F10; test: Photodynamic cytotoxicity against mouse B16-F10 cells assessed as inhibition of cell viability incubated for 3 hrs followed by photo-irradiation at 54 J/cm2 measured after 24 hrs by CCK8 assay; format: functional, cell-based; details: B16-F10, light or radiation study
[15] = Drug localization in endoplasmic reticulum of human HeLa cells at 5 uM incubated for 30 mins by ER-Tracker Green dye based confocal scanning microscopic analysis; format: ADME; details: 0.5 h
[16] = tested on: HepG2; test: Photodynamic cytotoxicity against human HepG2 cells assessed as inhibition of cell viability incubated for 3 hrs followed by photo-irradiation at 54 J/cm2 measured after 24 hrs by CCK8 assay; format: functional, cell-based; details: HepG2, light or radiation study
[17] = tested on: HeLa; test: Antitumor activity against human HeLa cells xenografted in Balb/C nu/nu mouse assessed as tumor growth inhibition at 2.5 umol/kg, iv with photo-irradiation at 30 J/cm2 after 1 hr of compound administration measured for 24 days; format: functional, organism-based; details: dose 2.5 µmol/kg, time 24.0 day
[18] = Toxicity in Balb/C nu/nu mouse xenografted with human HeLa cells assessed as increase in body weight at 2.5 umol/kg, iv with photo-irradiation at 30 J/cm2 after 1 hr of compound administration measured for 24 days; format: organism-based; details: in vivo, 576 h, dose 2.5 µmol/kg, time 24 day
[19] = Toxicity in Balb/C nu/nu mouse xenografted with human HeLa cells assessed as change in heart histology at 2.5 umol/kg, iv with photo-irradiation at 30 J/cm2 after 1 hr of compound administration measured after 24 days by H and E staining based analysis; format: organism-based; details: in vivo, 576 h, dose 2.5 µmol/kg, time 24 day
[20] = Toxicity in Balb/C nu/nu mouse xenografted with human HeLa cells assessed as change in liver histology at 2.5 umol/kg, iv with photo-irradiation at 30 J/cm2 after 1 hr of compound administration measured after 24 days by H and E staining based analysis; format: organism-based; details: in vivo, 576 h, dose 2.5 µmol/kg, time 24 day
[21] = Toxicity in Balb/C nu/nu mouse xenografted with human HeLa cells assessed as change in lung histology at 2.5 umol/kg, iv with photo-irradiation at 30 J/cm2 after 1 hr of compound administration measured after 24 days by H and E staining based analysis; format: organism-based; details: in vivo, 576 h, dose 2.5 µmol/kg, time 24 day
[22] = Toxicity in Balb/C nu/nu mouse xenografted with human HeLa cells assessed as drug tolerance at 2.5 umol/kg, iv with photo-irradiation at 30 J/cm2 after 1 hr of compound administration measured for 24 days; format: organism-based; details: in vivo, 576 h, dose 2.5 µmol/kg, time 24 day
[23] = Toxicity in Balb/C nu/nu mouse xenografted with human HeLa cells assessed as change in spleen histology at 2.5 umol/kg, iv with photo-irradiation at 30 J/cm2 after 1 hr of compound administration measured after 24 days by H and E staining based analysis; format: organism-based; details: in vivo, 576 h, dose 2.5 µmol/kg, time 24 day
[24] = Toxicity in Balb/C nu/nu mouse xenografted with human HeLa cells assessed as change in kidney histology at 2.5 umol/kg, iv with photo-irradiation at 30 J/cm2 after 1 hr of compound administration measured after 24 days by H and E staining based analysis; format: organism-based; details: in vivo, 576 h, dose 2.5 µmol/kg, time 24 day
[25] = tested on: HeLa; test: Antitumor activity against human HeLa cells xenografted in Balb/C nu/nu mouse assessed as reduction in tumor histology at 2.5 umol/kg, iv with photo-irradiation at 30 J/cm2 after 1 hr of compound administration measured after 24 days by H and E staining based analysis; format: functional, organism-based; details: dose 2.5 µmol/kg, time 24.0 day
[26] = tested on: HeLa; test: Antitumor activity against human HeLa cells xenografted in Balb/C nu/nu mouse assessed as tumor growth inhibition at 2.5 umol/kg, iv with photo-irradiation at 30 J/cm2 after 1 hr of compound administration measured for 6 days; format: functional, organism-based; details: dose 2.5 µmol/kg, time 6.0 day

Row | SMILES | IC50 [1] | IC50 [3] | IC50 at 27 h [5] | IC50 at 27 h [6] | IC50 at 27 h [7] | IC50 at 27 h [11] | Drug uptake [13] | IC50 [14] | IC50 [16] | also measured
1 | Br.COc1ccc2c(c1)CCc1c(-c3ccccc3)c3n(c1-2)[B-](F)(F)[N+]1=C(c2ccc(OCC(=O)NCCC[P+](c4ccccc4)(c4ccccc4)c4ccccc4)cc2)C(I)=C(c2ccccc2)C1=N3 | 5.5 nM | 12.2 nM | 21300 nM | 20100 nM | 44400 nM | 25800 nM | Tde | 33.7 nM | 14.3 nM | Activity [2]: Active; Activity [4]: Dose-Dependent Effect; Drug uptake [8]: Active; Drug uptake [9]: Not Active; Drug uptake [10]: Active; Activity [12]: inactive; Drug uptake [15]: Not Active
2 | C=Cc1c(C)c2cc3nc(c(CC(=O)O)c4[nH]c(cc5nc(cc1[nH]2)C(C)=C5CC)c(C)c4C(=O)O)[C@@H](CCC(=O)O)[C@@H]3C [CHLORIN E6] | 955 nM | 799 nM | > 50000 nM | > 50000 nM | > 50000 nM | > 50000 nM | – | 2300 nM | 599 nM | Activity [17]: inactive; Activity [18]: Non-Toxic; Activity [19]: Non-Toxic; Activity [20]: Non-Toxic; Activity [21]: Non-Toxic; Activity [22]: Non-Toxic; Activity [23]: Non-Toxic; Activity [24]: Non-Toxic
3 | COc1ccc(C2=[N+]3C(=Nc4c(-c5ccccc5)c5c(n4[B-]3(F)F)-c3ccc(OC)cc3CC5)C(c3ccccc3)=C2I)cc1 | 62.8 nM | 88.8 nM | > 50000 nM | > 50000 nM | > 50000 nM | > 50000 nM | Tde | 317 nM | 85.6 nM | Activity [25]: Active; Activity [4]: Dose-Dependent Effect; Activity [26]: Active; Activity [18]: Non-Toxic; Activity [19]: Non-Toxic; Activity [20]: Non-Toxic; Activity [21]: Non-Toxic; Activity [22]: Non-Toxic; Activity [12]: inactive; Activity [23]: Non-Toxic; Activity [24]: Non-Toxic
4 | COc1ccc2c(c1)CCc1c(-c3ccccc3)c3n(c1-2)[B-](F)(F)[N+]1=C(c2ccc(OCc4cn(CCCN5CCOCC5)nn4)cc2)C(I)=C(c2ccccc2)C1=N3 | 4.8 nM | 11.3 nM | 25400 nM | > 50000 nM | > 50000 nM | > 50000 nM | Tde | 10.4 nM | 9.1 nM | –
5 | COc1ccc2c(c1)CCc1c(-c3ccccc3)c3n(c1-2)[B-](F)(F)[N+]1=C(c2ccc(OCc4cn(CCCNC(=O)c5c(F)c(F)c(F)c(F)c5F)nn4)cc2)C(I)=C(c2ccccc2)C1=N3 | 92 nM | 219 nM | > 50000 nM | > 50000 nM | > 50000 nM | > 50000 nM | Tde | 413 nM | 179 nM | –
6 | Br.COc1ccc2c(c1)CCc1c(-c3ccccc3)c3n(c1-2)[B-](F)(F)[N+]1=C(c2ccc(OCc4cn(CCC[P+](c5ccccc5)(c5ccccc5)c5ccccc5)nn4)cc2)C(I)=C(c2ccccc2)C1=N3 | 2 nM | 13.7 nM | 10600 nM | 12500 nM | 12800 nM | 11400 nM | Tde | 21 nM | 14.3 nM | –
7 | COc1ccc2c(c1)CCc1c(-c3ccccc3)c3n(c1-2)[B-](F)(F)[N+]1=C(c2ccc(OCC(=O)NCCCNC(=O)c4c(F)c(F)c(F)c(F)c4F)cc2)C(I)=C(c2ccccc2)C1=N3 | 38.2 nM | 55.8 nM | > 50000 nM | > 50000 nM | > 50000 nM | > 50000 nM | Tde | 74.8 nM | 41.2 nM | –
